The test system of the data set is cornea (capsaicin-induced blinking). The class given is in vivo, Sprague-Dawley rats. The conditions noted are these: for reduction of blink rate elicited by capsaicin: topical ocular dosing in 10% cyclodextrin vehicle 5 min before capsaicin (5 μL of 0.0005%), seven week old Sprague-Dawley rats, blinks counted for one minute. The text has this:
A capsaicin blink test was used to determine the pharmacological effect of two fatty acid amides, oleamide and anandamide. The test measured the pain response of the cornea by the number of times the animal blinked after the application of capsaicin.
Lyophilized anandamide was resuspended in an aqueous 10% cyclodextrin solution that was buffered with an aliquot of 10× phosphate buffered saline (PBS) (Laine et. al., 2001, Pharmaceutical Research. 18:494-499). The test article, either cyclodextrin vehicle or fatty acid amide (FAA), was dosed to both eyes of seven week old Sprague-Dawley rats (n=8, per group) five minutes prior to the application of capsaicin. Blinks were counted after the application of anandamide. Animals were dosed with 5 μL of vehicle in OS eye. After a 5-second period, blinks were counted for one minute. Capsaicin (5 μL of 0.0005%) was dosed in the OD eye. Blinks were counted in the same manner as the OS eye.

With `CCCCCCCC/C=C\CCCCCCCC(N)=O` [Oleamide, oleamide], the “reduction of blink rate elicited by capsaicin” value came out at 20%. Also, the “solubility in the 10% cyclodextrin vehicle” value (rat, in vivo) was “only partial solubility”.
In the case of `CCCCC/C=C\C/C=C\C/C=C\C/C=C\CCCC(=O)NCCO` [anandamide], the “reduction of blink rate elicited by capsaicin” value is recorded as 50%. Further, under “rat, in vivo”, the “blinking after test article alone (before capsaicin application)” value is “rapid blinking for approximately one minute, followed by normal rates of blinking”.

For the origin of these results see patent US8207226B1, “Use of FAAH antagonists for treating dry eye and ocular pain” (Alcon Research, Ltd., priority 2008, dated 2012).
